Source: patent US12258547B2, “Cell culture plate, method for preparing thereof and method for detecting a substance” (UPM-Kymmene Corporation, priority 2019, dated 2025)
Where a name gives a salt, the structure may show the parent alone.

Legend:
BJ cells [1] = assay: Previous cytotoxicity data on BJ cells obtained without barriers; format: cell-based; conditions: Homo sapiens, dosed without barriers
Text: The aim was to detect dose-dependent effect by using a concentration that was expected to kill about half of the cells and a concentration two times bigger than that.

BJ cells [2] = assay: Leakage Test 1: 3D-printed barriers, BJ cells outside, chemical dosed inside, WST-1 and microscopy; format: cell-based, Human; conditions: SDS 80 and 40 μg/ml, amitriptyline 20 and 10 μg/ml dosed inside barrier, 24 hrs
Protocol: It was investigated whether the 3D-printed GrowDex barriers are suitable for their intended use, i.e. to prevent the movement of cells across the barrier but allow the passage of chemicals. In order to test this, BJ cells were seeded outside of the barrier, and chemicals (SDS and Amitriptyline hydrochloride), which are known to be toxic to BJ cells, were applied inside of the barrier. After 24 hrs incubation it was evaluated microscopically whether cells had stayed outside of the barriers and whether the chemical dosed in the middle of the barrier killed the cells outside of the barrier. For quantification of cell viability, WST-1 assay was used. WST-1 assay was selected as it was used previously successfully with manually constructed barriers.
12-Well Plates: 400 μl BJ suspension (100 000 cells/ml) was seeded outside of the barriers (→altogether 40 000 BJ cells), and 100 μl BJ cell culture medium was pipetted inside of the barriers.
24-Well Plates: 200 μl of BJ suspension (100 000 cells/ml) was seeded outside of the barriers (→altogether 20 000 BJ cells), and 50 μl BJ cell culture medium was pipetted inside of the barriers. […]
The plates were incubated for 2.5 hrs before absorbance measurement at 450 nm. The absorbance was measured using multipoint measurement with 49 reads/well in 24-well plates and 81 reads/well in 12-well plates.

BJ fibroblasts = assay: Leakage Test 2: 3D-printed 1.5% GrowDex barriers, BJ cells outside, chemical dosed inside, WST-1; format: cell-based, Human; conditions: 24 hrs, 450 nm
Protocol: (§1) For this purpose, we • decreased the cell number from the 40 000 cells/well that was used in Test 1, to 20 000 cells/well • increased the Amitriptyline concentrations from 10 and 20 μg/ml used in Test 1 to 100 and 200 μg/ml, and the SDS concentrations from 40 and 80 μg/ml used in Test 1 to 100 and 200 μg/ml. [By decreasing cell number and increasing chemical concentration it was aimed to increase the sensitivity of the test, and expect to obtain more (measurable/visible) impacts on cells]. • included following blanks: • 1.5% GrowDex barrier on poly-D-lysine coated wells in BJ cell culture medium and WST-1, but no cells • 1.5% GrowDex barrier in MEM, no coating, no cells • 1.5% GrowDex barrier in PBS, no coating, no cells • In addition, the number of measurements/well in the multipoint absorbance reading was increased from 81 to 225 reads/well in order to get denser coverage of the well.
(§2) 1.5% GrowDex barriers consisting of four layers, were printed on a 12-well plate. For more details on 3D-printing, see Appendix 1. After construction, the barriers were left to dry for 1 hr at room temperature, after which they were covered with MEM. The plate was sealed with parafilm and stored at 4° C. until used.
(§3) The next day after construction of the barriers, BJ fibroblasts were seeded: 400 μl BJ suspension (50 000 cells/ml) was seeded outside of the barriers (→altogether 20 000 BJ cells), and 100 μl BJ cell culture medium was pipetted inside of the barriers. The cells were let to grow for 24 hrs before exposure.
(§4) 2.0 mg/ml stocks were prepared from both Amitriptyline and SDS in BJ cell culture medium with 5% FBS. The stocks were first diluted 1:10 to obtain […] chemical dilution. And the 200 μg/ml chemical dilution was further diluted 1:2 to obtain 100 μg/ml chemical dilution. These dilutions, i.e. 200 and 100 μg/ml were used in the exposure.
(§5) The medium was removed carefully from both inside and outside of the barriers. 400 μl BJ cell culture medium with 5% FBS was pipetted outside of the barrier (where the cells had been seeded on previous day). 100 μl chemical dilution (SDS or Amitriptyline) was pipetted inside of the barriers. The exposure time was 24 hrs.
(§6) After 24 hrs chemical exposure, 10 μl WST-1 reagent was pipetted inside of the barriers, and 100 μl outside of the barriers. The plate was incubated for 30 min, 1.5 hrs and 2.0 hrs before absorbance measurement at 450 nm. The absorbance was measured using multipoint measurement with 225 reads/well.
(§7) In an attempt to quantify the cell viability after different treatments, the mean±STDEV absorbances were calculated using two rows of absorbances that were measured next to the outer edges of the wells. This area was assumed to be outside of the barrier.

[3] = as above; format: cell-based, Human; conditions: human; for viability at 24 h, 100 μg/ml: 100 μg/ml dosed into other side of barrier; for viability at 24 h, 100 μg/ml / viability at 24 h, 200 μg/ml: read-out: Viability % of Control; for viability at 24 h, 200 μg/ml: 200 μg/ml dosed into other side of barrier
Protocol: as §1, §2, §3, §4, §5, §6, §7

SH-SY5Y cells = assay: SDS permeability (indirect): cell viability observed microscopically on both sides of barrier; format: cell-based, Human; conditions: 0.4 mg/ml SDS dosed left
Protocol: Barrier permeability to chemicals was tested by visual inspection using 0.2% Trypan blue, by quantitative measurement using 1 mg/ml fluorescein solution, and by indirect method using sodium dodecyl sulfate (SDS), which is a toxic compound. SDS is a detergent that is known to be toxic to all cell types. […] Circular shaped barriers were prepared in 6-well plates, and straight wall shaped barriers in 24-well plates. SH-SY5Y cells were seeded to the 24-well plate in both sides of the barriers in their normal cell culture medium at the density of 325 000 cells/50 μl. HepG2 cells were seeded to the 6-well plate both inside the barrier circles and outside of them at the density of 107 500 cells/50 μl. Next day 0.4 mg/ml SDS stock was prepared and the cells were exposed to it: SH-SY5Y cells growing on the 24 well plate: 100 μl of 0.4 mg/ml SDS solution was pipetted to the left side of the barrier. 100 μl medium without SDS was pipetted to the right side of the barrier. […] The cell viability was observed microscopically.

HepG2 cells = assay: SDS permeability (indirect): cell viability observed microscopically inside and outside barrier circle; format: cell-based, Human; conditions: 0.4 mg/ml SDS dosed inside circle
Protocol: Barrier permeability to chemicals was tested by visual inspection using 0.2% Trypan blue, by quantitative measurement using 1 mg/ml fluorescein solution, and by indirect method using sodium dodecyl sulfate (SDS), which is a toxic compound. SDS is a detergent that is known to be toxic to all cell types. […] Circular shaped barriers were prepared in 6-well plates, and straight wall shaped barriers in 24-well plates. SH-SY5Y cells were seeded to the 24-well plate in both sides of the barriers in their normal cell culture medium at the density of 325 000 cells/50 μl. HepG2 cells were seeded to the 6-well plate both inside the barrier circles and outside of them at the density of 107 500 cells/50 μl. Next day 0.4 mg/ml SDS stock was prepared and the cells were exposed to it: HepG2 cells growing on the […]: 400 μl of 0.4 mg/ml SDS solution was pipetted inside the circle, and 400 μl of medium without SDS […] outside of the circle. […] The cell viability was observed microscopically.

[4] = 0.2% Trypan blue permeability through GrowDex barrier, visual inspection; format: physicochemical; conditions: 0.2% dosed to left side
Protocol: Barriers were prepared in 6-well (circular shaped barriers) and in 24-well (straight wall shaped barriers) plates, and allowed to dry overnight. The barriers were high enough to prevent passage and mixing of the solutions over them. All passage and mixing had to occur through the barriers. Barrier permeability to chemicals was tested by visual inspection using 0.2% Trypan blue, by quantitative measurement using 1 mg/ml fluorescein solution, and by indirect method using sodium dodecyl sulfate (SDS), which is a toxic compound. 400 μl Dulbecco's PBS/well was added to the 24-well plates. The plates were incubated for 1 hour at room temperature to moisturize the GrowDex barrier. The DPBS was removed and replaced with 100 μl 0.2% Trypan blue on the left side of the barrier, and with an equal amount of DPBS on the right side of the barrier.

[5] = 100 μg/ml dosed into other side of barrier
[6] = 200 μg/ml dosed into other side of barrier

CN(C)CCC=C1c2ccccc2CCc2ccccc21 [Amitriptyline hydrochloride, 3-(10,11-dihydro-5H-dibenzo[a,d]cycloheptene-5-ylidene)-N,N-dimethylpropan-1-amine]
IC50 (BJ cells [1]): 12 µg/mL | toxicity to BJ cells across 3D-printed barrier (BJ cells [2]): not toxic | Mean absorbance, stdev (BJ fibroblasts; [5]): 0.911 ± 0.283 | Mean absorbance, stdev (BJ fibroblasts; [6]): 0.844 ± 0.318 | viability at 24 h, 100 μg/ml [3]: 90% | cytotoxicity at 24 h, 100 μg/ml ([3]; 100 μg/ml exposure, across barrier, read-out: reduction in BJ viability): 10% | viability at 24 h, 200 μg/ml [3]: 84% | cytotoxicity at 24 h, 200 μg/ml ([3]; 200 μg/ml exposure, across barrier, read-out: reduction in BJ viability): 16%

CCCCCCCCCCCCOS(=O)(=O)[O-].[Na+] [SDS, Sodium Dodecyl Sulfate]
cell viability, left side of the barrier (dosed side) (SH-SY5Y cells; 24 hours): all SH-SY5Y cells in the left side of the barrier were dead | cell viability, right side of the barrier (SH-SY5Y cells; 24 hours): cells were dead next to the barrier, but not all over the well | cell viability, both compartments (SH-SY5Y cells; 48 hours): all cells were dead in both compartments | IC50 (BJ cells [1]): 47 µg/mL | cell viability inside the GrowDex circle (dosed side) (HepG2 cells; 24 hours): all HepG2 cells were dead inside the GrowDex circle | cell viability outside of the circle (HepG2 cells; 24 hours): also outside of the circle next to the GrowDex barrier | HepG2 cells died outside of the circle (HepG2 cells; 48 hours): about 95% | toxicity to BJ cells across 3D-printed barrier (BJ cells [2]): not toxic | Mean absorbance, stdev (BJ fibroblasts; [5]): 1.072 ± 0.322 | Mean absorbance, stdev (BJ fibroblasts; [6]): 1.189 ± 0.406 | viability at 24 h, 100 μg/ml [3]: 106% | viability at 24 h, 200 μg/ml [3]: 118%

Cc1cc(-c2ccc(/N=N/c3c(S(=O)(=O)O)cc4cc(S(=O)(=O)O)cc(N)c4c3O)c(C)c2)ccc1/N=N/c1c(S(=O)(=O)O)cc2cc(S(=O)(=O)O)cc(N)c2c1O [Trypan Blue]
distribution of blue color ([4]; after six hours): absorbed most of the blue color | distribution of blue color ([4]; next day): evenly distributed on the both sides of the barrier
